{"source": "patent US20180055049A1", "about": "“USE OF PRO-[…] UK-2A FOR CONTROL OF BROWN ROT DIESEASE ON STONE AND POME FRUITS” (Dow AgroSciences LLC, priority 2016, published 2018)", "assay_type_in_all_cases": "in vivo", "key": {"Monilinia spp. (MONILA) [1]": {"test_system": "Monilinia spp. (MONILA)", "assay": "Field trial 1: brown rot of flowers and branches, apricot, northeastern Italy", "conditions": "for % Incidence, Branches: Trial 1, branches, 24 DAA, untreated 23.50; for % Incidence, Flowers: Trial 1, flowers, 8 DAA, untreated 21.00", "protocol": "(§1) A fungicidal treatment containing Compound I for use against brown rot diseases on stone fruits was carried out in three field trials. The first two trials were carried out in Italy and France in order to investigate the effectiveness of Compound 1 against brown rot of flowers. These two trials were designed as randomized complete block with four replications (plots respectively of 35 and 50 m^2) and were carried out in typical areas for apricot and peaches cultivation, respectively, in northeastern Italy and southern France. Trials were conducted under EPPO PP1/38(2), PP1/135(3), PP1/152(3), PP1/181(3), PP1/239(1) and related guidelines. Trials were sprayed three times during the flowering period, using a backpack mist blower equipment calibrated to apply product respectively at 600 and 700 L/ha of water volume. […] MONILA disease was evaluated on flowers on a sample of ten pre-marked branches per tree, aged one year. The number of infected flowers was counted and consequently the percent incidence was then calculated. A second assessment was then made on 50 small branches randomly selected in the two 2 central trees for each plot, counting the number of diseased small branches and then the % incidence was calculated."}, "Monilinia spp. (MONILA) [2]": {"test_system": "Monilinia spp. (MONILA)", "assay": "Field trial 2: brown rot of flowers and branches, peaches, southern France", "conditions": "for % Incidence, Branches: Trial 2, branches, 22 DAA, untreated 30.60; for % Incidence, Flowers: Trial 2, flowers, 8 DAA, untreated 55.30", "protocol": "as §1"}, "[3]": {"test_system": "Monilinia fructicola (MONIFC)", "assay": "Field trial 3: brown rot of fruits, peach, Ravenna, northeastern Italy", "conditions": "Trial 3, fruits, 200 g ai/Ha", "protocol": "A third trial was conducted in Italy in order to investigate the effectiveness of Compound I against brown rot of fruits. This trial was designed as randomized complete block with four replications and plots of 49.5 m^2 and was carried out in a typical area for peach cultivation in the province of Ravenna in northeastern Italy. The trial was conducted under EPPO PP1/222(1), PP1/135(2), PP1/152(3), PP1/181(3), PP1/225(1), PP1/239(1) and related guidelines. Products were sprayed twice during fruit ripening respectively at BBCH 79-81 and 81-85 of plant grow stage using a self-propelled air-assisted multi plot sprayer designed for efficacy trials with four independent series of 8 nozzles (Albutz, ATR 80 Yellow) calibrated to apply a spray volume of 1,000 L/ha at a pressure of 450 KPa according to the orchard canopy.\nThe pathogen was certificated to be Monilinia fructicola (MONIFC) by means of an immunoassay followed by a PCR assay on material collected (mummies) from the trial. The brown rot damage at harvest was evaluated on l00 randomly picked fruits per plot. Visual healthy samples of 60 fruits per plot were placed in alveolus plates and kept for 5 days in cold storage. Afterwards the samples were maintained for 14 days at about 20° C. (shelf life period). Several assessments were made in order to check the development of disease during the shelf life simulation. […]"}}}
{"compound": "COc1ccnc(C(=O)N[C@H]2COC(=O)[C@H](Cc3ccccc3)[C@@H](OC(=O)C(C)C)[C@H](C)OC2=O)c1OCOC(=O)C(C)C", "note": "[Compound I]", "values": [{"measurement": "% Incidence, Branches", "setting": "Monilinia spp. (MONILA) [1]; 75 g ai/Ha", "value": 22.50, "unit": "%"}, {"measurement": "% Incidence, Branches", "setting": "Monilinia spp. (MONILA) [1]; 100 g ai/Ha", "value": 24.50, "unit": "%"}, {"measurement": "% Incidence, Branches", "setting": "Monilinia spp. (MONILA) [1]; 150 g ai/Ha", "value": 11.00, "unit": "%"}, {"measurement": "% Incidence, Flowers", "setting": "Monilinia spp. (MONILA) [1]; 75 g ai/Ha", "value": 11.25, "unit": "%"}, {"measurement": "% Incidence, Flowers", "setting": "Monilinia spp. (MONILA) [1]; 100 g ai/Ha", "value": 4.75, "unit": "%"}, {"measurement": "% Incidence, Flowers", "setting": "Monilinia spp. (MONILA) [1]; 150 g ai/Ha", "value": 3.25, "unit": "%"}, {"measurement": "% Incidence, Branches", "setting": "Monilinia spp. (MONILA) [2]; 75 g ai/Ha", "value": 11.98, "unit": "%"}, {"measurement": "% Incidence, Branches", "setting": "Monilinia spp. (MONILA) [2]; 100 g ai/Ha", "value": 9.93, "unit": "%"}, {"measurement": "% Incidence, Branches", "setting": "Monilinia spp. (MONILA) [2]; 150 g ai/Ha", "value": 4.20, "unit": "%"}, {"measurement": "% Incidence, Flowers", "setting": "Monilinia spp. (MONILA) [2]; 75 g ai/Ha", "value": 24.00, "unit": "%"}, {"measurement": "% Incidence, Flowers", "setting": "Monilinia spp. (MONILA) [2]; 100 g ai/Ha", "value": 16.70, "unit": "%"}, {"measurement": "% Incidence, Flowers", "setting": "Monilinia spp. (MONILA) [2]; 150 g ai/Ha", "value": 15.40, "unit": "%"}, {"measurement": "% Incidence, Fruits", "setting": "[3]; 7 DAA, untreated 31.3", "value": 15.0, "unit": "%"}, {"measurement": "% Incidence, Fruits", "setting": "[3]; 26 DAA, untreated 32.5", "value": 16.8, "unit": "%"}]}
